From patent US20100099561A1, “HETEROBICYCLIC ALKYLTHIO-BRIDGED ISOXAZOLINES” (E.I. DU PONT DE NEMOURS AND COMPANY, priority 2008, published 2010)

Experiments:
Assay type in all cases: in vivo
[1] = tested on: velvetleaf (Abutilon theophrasti); test: Test A preemergence, velvetleaf; details: 0 to 100 scale (0 no effect, 100 complete control)
Outline: (§1)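 Sow seeds in loam–sand blend; spray soil directly (pre) and treat emerged one- to two-leaf plants 2–10 cm tall (post) with compound in surfactant-containing non-phytotoxic solvent. Keep in greenhouse about ten days. Score injury visually against controls from 0 to 100.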

[2] = tested on: giant foxtail (Setaria faberi); test: Test A preemergence, giant foxtail; details: 0 to 100 scale (0 no effect, 100 complete control)
Outline: as §1

[3] = tested on: morningglory (Ipomoea spp.); test: Test A postemergence, morningglory; details: 0 to 100 scale (0 no effect, 100 complete control)
Outline: as §1

[4] = tested on: barnyardgrass (Echinochloa crus-galli); test: Test B flooded paddy test, barnyardgrass; details: Flood
Outline: (§2)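 Step one: raise plants to 2 leaves. Step two: flood pots 3 cm over the soil and apply compound into the water, keeping this depth. Step three: after 13–15 greenhouse days, score visually versus controls, 0–100, where 100 means complete control.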

[5] = tested on: giant foxtail (Setaria faberi); test: Test A postemergence, giant foxtail; details: 0 to 100 scale (0 no effect, 100 complete control)
Outline: as §1

[6] = tested on: pigweed (Amaranthus retroflexus); test: Test A preemergence, pigweed; details: 0 to 100 scale (0 no effect, 100 complete control)
Outline: as §1

[7] = tested on: umbrella sedge (Cyperus difformis); test: Test B flooded paddy test, umbrella sedge; details: Flood, scale 0 to 100
Outline: as §2

[8] = tested on: wheat (Triticum aestivum); test: Test A postemergence, wheat; details: 0 to 100 scale (0 no effect, 100 complete control)
Outline: as §1

[9] = tested on: pigweed (Amaranthus retroflexus); test: Test A postemergence, pigweed; details: 0 to 100 scale (0 no effect, 100 complete control)
Outline: as §1

[10] = tested on: morningglory (Ipomoea spp.); test: Test A preemergence, morningglory; details: 0 to 100 scale (0 no effect, 100 complete control)
Outline: as §1

[11] = tested on: barnyardgrass (Echinochloa crus-galli); test: Test A postemergence, barnyardgrass; details: 0 to 100 scale (0 no effect, 100 complete control)
Outline: as §1

rice (Oryza sativa) = test: Test B flooded paddy test, rice; details: Flood, scale 0 to 100
Outline: as §2

corn (Zea mays) [12] = test: Test A postemergence, corn; details: 0 to 100 scale (0 no effect, 100 complete control)
Outline: as §1

[13] = tested on: velvetleaf (Abutilon theophrasti); test: Test A postemergence, velvetleaf; details: 0 to 100 scale (0 no effect, 100 complete control)
Outline: as §1

[14] = tested on: large crabgrass (Digitaria sanguinalis); test: Test A postemergence, large crabgrass; details: 0 to 100 scale (0 no effect, 100 complete control)
Outline: as §1

[15] = tested on: barnyardgrass (Echinochloa crus-galli); test: Test A preemergence, barnyardgrass; details: 0 to 100 scale (0 no effect, 100 complete control)
Outline: as §1

[16] = tested on: ducksalad (Heteranthera limosa); test: Test B flooded paddy test, ducksalad; details: Flood, scale 0 to 100
Outline: as §2

[17] = tested on: large crabgrass (Digitaria sanguinalis); test: Test A preemergence, large crabgrass; details: 0 to 100 scale (0 no effect, 100 complete control)
Outline: as §1

[18] = tested on: wheat (Triticum aestivum); test: Test A preemergence, wheat; details: 0 to 100 scale (0 no effect, 100 complete control)
Outline: as §1

corn (Zea mays) [19] = test: Test A preemergence, corn; details: 0 to 100 scale (0 no effect, 100 complete control)
Outline: as §1

[20] = 250 g ai/ha, scale 0 to 100 (0 no effect, 100 complete control)

## CCn1c(=O)c(C[S+]([O-])C2=NOC(C)(C)C2)nc2cccnc21 (stereo not drawn) [Compound 38]
[1]; 125 g ai/ha
  Plant response rating, Velvetleaf: 0
[1]; 500 g ai/ha
  Plant response rating, Velvetleaf: 0
[2]; 125 g ai/ha
  Plant response rating, Foxtail, Giant: 0
[2]; 500 g ai/ha
  Plant response rating, Foxtail, Giant: 0
[3]; 125 g ai/ha
  Plant response rating, Morningglory: 0
[3]; 500 g ai/ha
  Plant response rating, Morningglory: 10
[4]; 31 g ai/ha, scale 0 to 100
  Plant response rating, Barnyardgrass: 0
[4]; 62 g ai/ha, scale 0 to 100
  Plant response rating, Barnyardgrass: 0
[4]; 125 g ai/ha, scale 0 to 100
  Plant response rating, Barnyardgrass: 0
[4]; [20]
  Plant response rating, Barnyardgrass: 0
[5]; 125 g ai/ha
  Plant response rating, Foxtail, Giant: 0
[5]; 500 g ai/ha
  Plant response rating, Foxtail, Giant: 0
[6]; 125 g ai/ha
  Plant response rating, Pigweed: 0
[6]; 500 g ai/ha
  Plant response rating, Pigweed: 0
[7]; 31 g ai/ha
  Plant response rating, Sedge, Umbrella: 0
[7]; 62 g ai/ha
  Plant response rating, Sedge, Umbrella: 0
[7]; 125 g ai/ha
  Plant response rating, Sedge, Umbrella: 0
[7]; 250 g ai/ha
  Plant response rating, Sedge, Umbrella: 0
[8]; 125 g ai/ha
  Plant response rating, Wheat: 0
[8]; 500 g ai/ha
  Plant response rating, Wheat: 10
[9]; 125 g ai/ha
  Plant response rating, Pigweed: 0
[9]; 500 g ai/ha
  Plant response rating, Pigweed: 0
[10]; 125 g ai/ha
  Plant response rating, Morningglory: 0
[10]; 500 g ai/ha
  Plant response rating, Morningglory: 0
[11]; 125 g ai/ha
  Plant response rating, Barnyardgrass: 20
[11]; 500 g ai/ha
  Plant response rating, Barnyardgrass: 30
Rice (Oryza sativa); 31 g ai/ha
  Plant response rating, Rice: 0
Rice (Oryza sativa); 62 g ai/ha
  Plant response rating, Rice: 0
Rice (Oryza sativa); 125 g ai/ha
  Plant response rating, Rice: 0
Rice (Oryza sativa); 250 g ai/ha
  Plant response rating, Rice: 0
Corn (Zea mays) [12]; 125 g ai/ha
  Plant response rating, Corn: 0
Corn (Zea mays) [12]; 500 g ai/ha
  Plant response rating, Corn: 0
[13]; 125 g ai/ha
  Plant response rating, Velvetleaf: 0
[13]; 500 g ai/ha
  Plant response rating, Velvetleaf: 30
[14]; 125 g ai/ha
  Plant response rating, Crabgrass, Large: 0
[14]; 500 g ai/ha
  Plant response rating, Crabgrass, Large: 20
[15]; 125 g ai/ha
  Plant response rating, Barnyardgrass: 0
[15]; 500 g ai/ha
  Plant response rating, Barnyardgrass: 0
[16]; 31 g ai/ha
  Plant response rating, Ducksalad: 0
[16]; 62 g ai/ha
  Plant response rating, Ducksalad: 0
[16]; 125 g ai/ha
  Plant response rating, Ducksalad: 0
[16]; 250 g ai/ha
  Plant response rating, Ducksalad: 0
[17]; 125 g ai/ha
  Plant response rating, Crabgrass, Large: 0
[17]; 500 g ai/ha
  Plant response rating, Crabgrass, Large: 0
[18]; 125 g ai/ha
  Plant response rating, Wheat: 0
[18]; 500 g ai/ha
  Plant response rating, Wheat: 0
Corn (Zea mays) [19]; 125 g ai/ha
  Plant response rating, Corn: 0
Corn (Zea mays) [19]; 500 g ai/ha
  Plant response rating, Corn: 0

## CC1(C)CC([S+]([O-])Cc2c(C(F)(F)F)nc3ccon3c2=O)=NO1 (stereo not drawn) [Compound 43]
[1]; 125 g ai/ha
  Plant response rating, Velvetleaf: 0
[1]; 500 g ai/ha
  Plant response rating, Velvetleaf: 0
[2]; 125 g ai/ha
  Plant response rating, Foxtail, Giant: 0
[2]; 500 g ai/ha
  Plant response rating, Foxtail, Giant: 80
[3]; 125 g ai/ha
  Plant response rating, Morningglory: 0
[3]; 500 g ai/ha
  Plant response rating, Morningglory: 40
[4]; 31 g ai/ha, scale 0 to 100
  Plant response rating, Barnyardgrass: 0
[4]; 62 g ai/ha, scale 0 to 100
  Plant response rating, Barnyardgrass: 0
[4]; 125 g ai/ha, scale 0 to 100
  Plant response rating, Barnyardgrass: 0
[4]; [20]
  Plant response rating, Barnyardgrass: 0
[5]; 125 g ai/ha
  Plant response rating, Foxtail, Giant: 30
[5]; 500 g ai/ha
  Plant response rating, Foxtail, Giant: 70
[6]; 125 g ai/ha
  Plant response rating, Pigweed: 0
[6]; 500 g ai/ha
  Plant response rating, Pigweed: 0
[7]; 31 g ai/ha
  Plant response rating, Sedge, Umbrella: 0
[7]; 62 g ai/ha
  Plant response rating, Sedge, Umbrella: 0
[7]; 125 g ai/ha
  Plant response rating, Sedge, Umbrella: 20
[7]; 250 g ai/ha
  Plant response rating, Sedge, Umbrella: 30
[8]; 125 g ai/ha
  Plant response rating, Wheat: 0
[8]; 500 g ai/ha
  Plant response rating, Wheat: 0
[9]; 125 g ai/ha
  Plant response rating, Pigweed: 0
[9]; 500 g ai/ha
  Plant response rating, Pigweed: 0
[10]; 125 g ai/ha
  Plant response rating, Morningglory: 0
[10]; 500 g ai/ha
  Plant response rating, Morningglory: 0
[11]; 125 g ai/ha
  Plant response rating, Barnyardgrass: 40
[11]; 500 g ai/ha
  Plant response rating, Barnyardgrass: 70
Rice (Oryza sativa); 31 g ai/ha
  Plant response rating, Rice: 0
Rice (Oryza sativa); 62 g ai/ha
  Plant response rating, Rice: 0
Rice (Oryza sativa); 125 g ai/ha
  Plant response rating, Rice: 0
Rice (Oryza sativa); 250 g ai/ha
  Plant response rating, Rice: 0
Corn (Zea mays) [12]; 125 g ai/ha
  Plant response rating, Corn: 0
Corn (Zea mays) [12]; 500 g ai/ha
  Plant response rating, Corn: 40
[13]; 125 g ai/ha
  Plant response rating, Velvetleaf: 0
[13]; 500 g ai/ha
  Plant response rating, Velvetleaf: 0
[14]; 125 g ai/ha
  Plant response rating, Crabgrass, Large: 10
[14]; 500 g ai/ha
  Plant response rating, Crabgrass, Large: 60
[15]; 125 g ai/ha
  Plant response rating, Barnyardgrass: 10
[15]; 500 g ai/ha
  Plant response rating, Barnyardgrass: 70
[16]; 31 g ai/ha
  Plant response rating, Ducksalad: 0
[16]; 62 g ai/ha
  Plant response rating, Ducksalad: 0
[16]; 125 g ai/ha
  Plant response rating, Ducksalad: 0
[16]; 250 g ai/ha
  Plant response rating, Ducksalad: 25
[17]; 125 g ai/ha
  Plant response rating, Crabgrass, Large: 0
[17]; 500 g ai/ha
  Plant response rating, Crabgrass, Large: 60
[18]; 125 g ai/ha
  Plant response rating, Wheat: 0
[18]; 500 g ai/ha
  Plant response rating, Wheat: 0
Corn (Zea mays) [19]; 125 g ai/ha
  Plant response rating, Corn: 0
Corn (Zea mays) [19]; 500 g ai/ha
  Plant response rating, Corn: 0
